24 molecules from ChEMBL document CHEMBL4411258, “Novel natural compounds from endophytic fungi with anticancer activity” (Eur J Med Chem, 2018) can be followed below.

One may read the IC50 as the concentration at which inhibition is half-maximal.

Test [1] relates to HepG2. In words: Cytotoxicity against human HepG2 cells after 48 hrs by sulforhodamine B assay. The format is functional, cell-based. The settings on record: Homo sapiens, HepG2, 48 h. Background: In SRB staining, fixed cells bind dye roughly in proportion to their protein.
The test system of test [2] is MCF7. Briefly: Cytotoxicity against human MCF7 cells after 48 hrs by sulforhodamine B assay. The format is functional, cell-based. Conditions: Homo sapiens, MCF7, 48 h.
Test [3] relates to L02. In words: Cytotoxicity against human L02 cells by MTS assay. The format is cell-based.
The test system of test [4] is HepG2. In words: Cytotoxicity against human HepG2 cells by MTT assay. The format is functional, cell-based. In general terms: Tetrazolium assays rely on reduction of a dye to a coloured formazan, in cell work by metabolically active cells.
The test system of test [5] is PC-3. In words: Cytotoxicity against human PC3 cells after 48 hrs by MTT assay. The format is functional, cell-based. The settings on record: PC-3, 48 h.
Test [6] has as its system SH-SY5Y. In words: Cytotoxicity against human SH-SY5Y cells after 48 hrs by MTT assay. The format is functional, cell-based.
The test system of test [7] is NB-4. In words: Cytotoxicity against human NB4 cells after 48 hrs by MTT assay. The format is functional, cell-based. Conditions: NB-4, 48 h.
For test [8], the system named is A549. In words: Cytotoxicity against human A549 cells after 48 hrs by MTT assay. The format is functional, cell-based. The settings on record: Homo sapiens, A549, 48 h; read-out: IC50.
Test [9] deals with MCF7. In words: Cytotoxicity against human MCF7 cells after 48 hrs by MTT assay. The format is functional, cell-based. Conditions: Homo sapiens, MCF7, 48 h; read-out: IC50.
Test [10] deals with MCF7. In words: Cytotoxicity against human MCF7 cells after 72 hrs by MTT assay. The format is functional, cell-based. Conditions: MCF7, 72 h.
Test [11] in a line: Cytotoxicity against human KATO III cells after 72 hrs by MTT assay. The format is functional, cell-based.
The subject of test [12] is MCF7. Briefly: Cytotoxicity against human MCF7 cells by MTT assay. The format is functional, cell-based.
The test system of test [13] is L5178Y. In words: Cytotoxicity against mouse L5178Y cells by MTT assay. The format is functional, cell-based.
Test [14] has as its system SH-SY5Y. Briefly: Cytotoxicity against human SH-SY5Y cells by MTT assay. The format is functional, cell-based.
For test [15], the system named is NCI-H460. In words: Cytotoxicity against human NCI-H460 cells after 48 hrs by sulforhodamine B assay. The format is functional, cell-based. Conditions: Homo sapiens, NCI-H460, 48 h.
Test [16] relates to SF-268. In words: Cytotoxicity against human SF268 cells after 48 hrs by sulforhodamine B assay. The format is functional, cell-based. Conditions: Homo sapiens, SF-268, 48 h.
The subject of test [17] is A549. Briefly: Cytotoxicity against human A549 cells by MTT assay. The format is functional, cell-based.

Structures are written as SMILES.

For the molecule `Cc1cc(O)c(C(=O)c2c(C(=O)O)cc(O)c(O)c2O)c(O)c1`, the values for the IC50 in test [1] and in test [2] were 60 µM and 70 µM, respectively.
On to `COc1cc2c(c3c1OC(C)(C)CC3=O)C[C@@H](C)OC2=O`, for which the IC50 in [3] was 3.8 µM; in test [4], 4 µM.
For `COc1ccc(CCCO)c2cc(CC(C)=O)oc(=O)c12`, the IC50 in test [5], in [6], in test [7], in [8] and in test [9] was 2.8 to 8.8 µM in each case.
Regarding `COc1cc(O)c2c(=O)cc(C)oc2c1[C@@H]1C[C@@H](OC)C(=O)O1`, the IC50 in test [10] is 19.3 µM; in [11], 23.3 µM.
Consider `COc1cc(O)c2c(c1)C=C([C@H](O)[C@H](O)C(Cl)Cl)OC2O` (some centres undefined), for which the IC50 was determined as 17.8 µg/mL in test [12] and 39.6 µg/mL in [4].
In [11], `C[C@H]1[C@H](O)CCC(C)(C)[C@@]12CC=C(C(=O)O)CC2` showed an IC50 of 35 µM.
For `COC(=O)CCCN1C(=O)[C@]23O[C@]4(O)[C@@H](O)C(=O)N5C(C)(C)[C@H](Cc6cccc1c62)[C@H]3[C@@]54O`, the half-maximal inhibitory concentration (IC50) in test [5], in [6], in [7] and in test [9] was under 10 µM throughout.
For `COc1cc(O)c2c(=O)cc(C)oc2c1[C@H](C[C@@H](OC)C(=O)O)OC`, the IC50 amounted to 17.7 µM in test [10] and 16 µM in test [11].
As for `CC[C@@H](C)C[C@H](/C=C(\C)[C@H](O)[C@H](C)/C=C(\C)[C@H](O)[C@H](C)/C=C/[C@H](O)[C@H](C)/C=C(\C)C=O)CO`, in test [13], the IC50 is 4.1 µM.
As to `COC(=O)[C@]1(Cc2cc(CC=C(C)C)c(O)c(OC)c2)OC(=O)C(O)=C1c1ccc(O)cc1`, the IC50 in test [3] was 4.2 µM; in test [4], 3.6 µM.
Regarding `COc1c(O)cc2c(c1CC=C(C)C)C[C@@H](C)OC2=O`, in test [14], the IC50 came out at 8.8 µM.
For `COc1cc(O)c2c(c1)C(=O)C1=C(C2=O)[C@H](O)[C@@H](O)[C@@](C)(O)C1`, in test [13], 9.4 µM corresponded to half-maximal inhibition (IC50).
For the molecule `C[C@H]1C(=O)N2c3ccccc3[C@@]3(O)C[C@H](n4cnc5ccccc5c4=O)C(=O)N1[C@@H]23`, half-maximal inhibition in test [5] (IC50) was put at 32.2 µM.
In test [5], `COc1ccc2c(c1)N(C(=O)C=C(C)C)C1C2[C@H](O)[C@@]2(O)C(=O)N3CCC[C@H]3C(=O)N2[C@H]1CC(C)(C)O` (some centres undefined) returned an IC50 of 30.6 µM.
With `COC(=O)CCCN1C(=O)[C@@]23O[C@@]4(O)[C@@]5(O)[C@@H]2[C@@H](Cc2cccc1c23)C(C)(C)N5C(=O)[C@]4(O)[C@@H](C)O`, the IC50 in test [6], in test [7], in test [8] and in [9] was under 10 µM each time.
With `CC(=O)Cc1cc2c(CCCO)cc(O)cc2c(=O)o1`, the IC50 in test [5], in test [6], in test [7], in test [8] and in test [9] was 2.8 to 8.8 µM throughout.
`CC(C)=CCc1cc2c3c(c1)N(C)C(=O)[C@]31O[C@]3(O)[C@@H](O)C(=O)N4C(C)(C)[C@H](C2)[C@H]1[C@@]43O`: the IC50 in test [5], in test [6], in test [7], in test [8] and in test [9] was 1.2 to 4.2 µM in each case.
On to `C[C@@H](O)[C@@]1(O)C(=O)N2C(C)(C)[C@@H]3Cc4cccc5c4[C@@]4(O[C@@]1(O)[C@@]2(O)[C@H]34)C(=O)N5C`, for which the IC50 in test [5], in [6], in [7], in test [8] and in [9] was 1.2 to 4.2 µM in each case.
Consider `C/C(=C\Cc1c(O)ccc2c1C=C(CO)OC2)CO`, for which the IC50 in [5], in test [6], in test [7], in [8] and in [9] was 2.8 to 8.8 µM throughout.
In the case of `CCC/C=C/[C@H]1C=CC(=O)[C@H](O)[C@H]1C(=O)C(C)O` (some centres undefined), the IC50 is 46.8 µM in [1], 36.4 µM in [15], 15.7 µM in [2] and 40.5 µM in [16].
As to `CC(C)[C@@H]1CC[C@](C)(O)C2=C1C(=O)[C@](C)(O)C[C@@H]2O`, the values for the IC50 in test [17] and in [12] were 0.2 µM and 5.9 µM, respectively.
Consider `CN1C(=O)[C@]23O[C@]4(O)[C@@H](O)C(=O)N5C(C)(C)[C@H](Cc6cccc1c62)[C@H]3[C@@]54O`, for which the IC50 in test [5], in test [6], in test [7], in test [8] and in test [9] was 1.2 to 4.2 µM in each case.
`COc1cc(O)c2c(=O)cc(C)oc2c1[C@@H](C[C@@H](OC)C(=O)O)OC`: in test [11], 16.8 µM corresponded to half-maximal inhibition (IC50).
With `Cc1cc(O)c2c(c1)C(=O)c1c(c(O)cc(O)c1-c1c(O)cc(O)c3c1C(=O)c1cc(CC(C)O)cc(O)c1C3=O)C2=O` (centres undefined), the IC50 in test [9] was determined as 20.8 µg/mL.
